According to patent publication US10556865B2, “Synergistic herbicidal composition containing certain pyridine or pyrimidine carboxylic acids and certain cereal and rice herbicides” (Dow AgroSciences, LLC, priority 2007, dated 2020):
Where “and” joins values, the source holds several entries; their conditions need not be identical. Equal entries are not always repeated. Where two headings read alike, the source gives them in different places.

Legend:
Format in all cases: in vivo
[1] = test system: Digitaria sanguinalis (L.) SCOP. (DIGSA); test: Postemergence herbicidal mixtures for weed control in direct seeded rice (greenhouse, visual % injury)
[2] = test system: green foxtail (Setaria viridis L; SETVI); test: Postemergence herbicidal activity of mixtures in cereal crops (greenhouse, visual injury)
Procedure, shortened: (§1)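 Injury ratings (0–100%) taken 20–22 days post-spray versus solvent-blank controls. Treatment: 187 L/ha track spray, 2nd–3rd leaf plants, Compound A/B with second cereal herbicide.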

[3] = test system: lamb's-quarters (Chenopodium album L; CHEAL); test: as above
Procedure, shortened: as §1

[4] = test system: cut-leaf geranium (Geranium dissectum L; GERDI); test: as above
Procedure, shortened: as §1

[5] = test system: ivy-leaved speedwell (Veronica hederifolia L; VERHE); test: as above
Procedure, shortened: as §1

[6] = test system: Russian thistle (Salsola iberica L; SASKR); test: as above
Procedure, shortened: as §1

[7] = test system: wild buckwheat (Polygonum convolvulus L; POLCO); test: as above
Procedure, shortened: as §1

[8] = test system: black mustard (Brassica nigra L; BRSNI); test: as above; conditions: Brassica, post-emergence, read-out: BRSNI Ob
Procedure, shortened: as §1

[9] = test system: rigid ryegrass (Lolium rigidum L; LOLRI); test: as above
Procedure, shortened: as §1

Structure (SMILES): COC(=O)c1nc(-c2ccc(Cl)c(OC)c2F)cc(N)c1Cl [Compound A Methyl, 4-amino-3-chloro-6-(4-chloro-2-fluoro-3-methoxyphenyl)pyridine-2-carboxylic acid methyl ester]
- % Injury Ob ([1]; 8.75 g/ha alone): 20%
- % Injury Ob ([1]; 17.5 g/ha alone): 50%
- SETVI Ob ([2]; 17.5 g/ha, Table 1): 70%
- SETVI Ob ([2]; 35 g/ha, Table 1): 75%
- SETVI Ob ([2]; 35 g/ha, Table 7): 77%
- SETVI Ob ([2]; 70 g/ha, Table 1): 80%
- SETVI Ob ([2]; 70 g/ha, Table 7): 82%
- SETVI Ob ([2]; 140 g/ha, Table 7): 91%
- CHEAL Ob ([3]; 17.5 g/ha): 90%
- CHEAL Ob ([3]; 35 g/ha): 90%
- CHEAL Ob ([3]; 70 g/ha): 95%

Structure (SMILES): COc1c(Cl)ccc(-c2cc(N)c(Cl)c(C(=O)O)n2)c1F [Compound A TEA, 4-amino-3-chloro-6-(4-chloro-2-fluoro-3-methoxyphenyl)pyridine-2-carboxylic acid]
- GERDI Ob ([4]; 8.75 g/ha): 50%
- GERDI Ob ([4]; 8.75 g/ha alone): 50% and 38%
- GERDI Ob ([4]; 17.5 g/ha): 55%
- GERDI Ob ([4]; 17.5 g/ha alone): 55% and 50%
- GERDI Ob ([4]; 35 g/ha): 65%
- GERDI Ob ([4]; 35 g/ha alone): 65% and 80%
- GERDI Ob ([4]; 70 g/ha alone): 78% and 85%
- VERHE Ob ([5]; 8.75 g/ha): 10%
- VERHE Ob ([5]; 17.5 g/ha): 20%
- VERHE Ob ([5]; 35 g/ha): 50%
- VERHE Ob ([5]; 70 g/ha): 75%
- SASKR Ob ([6]; 8.75 g/ha alone): 80%
- SASKR Ob ([6]; 17.5 g/ha alone): 84%
- SASKR Ob ([6]; 35 g/ha alone): 87%
- SASKR Ob ([6]; 70 g/ha alone): 93%
- POLCO Ob ([7]; 8.75 g/ha): 90%
- POLCO Ob ([7]; 8.75 g/ha alone): 90% and 76%
- POLCO Ob ([7]; 17.5 g/ha): 93%
- POLCO Ob ([7]; 17.5 g/ha alone): 93% and 88%
- POLCO Ob ([7]; 35 g/ha): 98%
- POLCO Ob ([7]; 35 g/ha alone): 98% and 96%
- POLCO Ob ([7]; 70 g/ha): 99%
- POLCO Ob ([7]; 70 g/ha alone): 99%
- pest or weed control at 8.75 g/ha ([8]; 8.75 g/ha alone): 70%
- pest or weed control at 8.75 g/ha ([8]; 8.75 g/ha): 70%
- pest or weed control at 17.5 g/ha ([8]; 17.5 g/ha alone): 91%
- pest or weed control at 17.5 g/ha ([8]; 17.5 g/ha): 91%
- pest or weed control at 35 g/ha ([8]; 35 g/ha alone): 98%
- pest or weed control at 35 g/ha ([8]; 35 g/ha): 98%
- pest or weed control at 70 g/ha ([8]; 70 g/ha alone): 99%
- pest or weed control at 70 g/ha ([8]; 70 g/ha): 99%
- LOLRI Ob ([9]; 35 g/ha, Table 12): 0%
- LOLRI ([9]; 35 g/ha, Table 13): 0%
- LOLRI Ob ([9]; 35 g/ha, Table 17): 0%
- LOLRI ([9]; 35 g/ha, Table 19): 0%
- LOLRI Ob ([9]; 70 g/ha, Table 12): 0%
- LOLRI ([9]; 70 g/ha, Table 13): 0%
- LOLRI Ob ([9]; 70 g/ha, Table 17): 0%
- LOLRI ([9]; 70 g/ha, Table 19): 0%
- LOLRI Ob ([9]; 140 g/ha, Table 12): 10%
- LOLRI ([9]; 140 g/ha, Table 13): 10%
- LOLRI Ob ([9]; 140 g/ha, Table 17): 10%
- LOLRI ([9]; 140 g/ha, Table 19): 10%
